In brackets after ≈: the same amount, converted by molar mass. Read-outs that look alike come from different tables or passages of the source. Peptide text beside a SMILES is read from it.
How the values were obtained:
human red blood cells = assay type: cell-based
Protocol: The hemolytic assay was performed after approval from the institutional ethics committee (Academia Sinica Institutional Review Board [IRB]; ID no. AS-IRB02-111075). Blood was collected from healthy humans, and 50 μL of a 2% blood cell suspension in normal saline was treated with an equal volume of peptide at different concentrations. The mixture was then incubated at 37 ± 2°C for 1 h. Next, the cell suspension was centrifuged at 1,000 × g for 10 min. Percent hemolysis was estimated by the absorbance of treated and control supernatant samples at 540 nm ([23], [44]).

human kidney cell (HK-2) = test: alamarBlue cytotoxicity assay; assay type: cell-based; conditions: at 1.56 μM, 24 h
Protocol: (§1) (i) Cell culture. Human skin keratinocytes (HaCaT), human kidney (HK-2), and RAW 264.7 macrophage cells were obtained from the Bioresource Collection and Research Center (BCRC, Hsinchu, Taiwan). HaCaT and […] macrophage cells were cultured in Dulbecco’s modified Eagle’s medium (DMEM, Thermo Fischer, MA, USA.) supplemented with 10% FBS, penicillin (100 U/mL), and streptomycin (100 μg/mL) at 37°C under 5% CO2. HK-2 cells were cultured in glucose-free Keratinocyte serum-free medium (K-SFM) supplemented with 0.05 mg/mL bovine pituitary extract (BPE), 5 ng/mL EGF, 100 U/mL penicillin, and […] streptomycin at 37°C in 5% CO2 ([49]).
(§2) In vitro toxicity assay. The cytotoxicity of TP4-3 was evaluated by an alamarBlue assay. HaCaT, HK-2, and RAW 264.7 macrophage cells were seeded at densities of 1 × 10^4 cells/well in 96-well cell plates and treated with the indicated concentrations of TP4 and TP4-3 for 24 h (0.78 to 100 μM). Cells treated with 0.1% Triton X-100 and culture medium served as negative and positive-control groups, respectively. After incubation, the cells were washed and incubated for 2 h at 37°C with 90 μL Dulbecco’s modified Eagle medium (DMEM) containing 10 μL alamarBlue reagent. Fluorescence was recorded using a Spectra Max i3 Multi-Mode detection platform (Molecular Devices, San Jose, CA) to measure cell viability ([50], [51]).

[1] = test system: human keratinocyte (HaCaT); test: alamarBlue cytotoxicity assay; assay type: cell-based; conditions: at 0.78 μM, 24 h
Protocol: as §1, §2

[2] = test system: murine macrophage (RAW 264.7); test: alamarBlue cytotoxicity assay; assay type: cell-based; conditions: at 1.56 μM, 24 h
Protocol: as §1, §2

Pseudomonas aeruginosa = test: microbe, parasite or virus in culture; assay type: cell-based
Protocol: (§3) The antimicrobial assay was performed according to a modified National Committee for Clinical Laboratory Standards (NCCLS) protocol ([41], [42]). Briefly, 5 × 10^5 CFU/mL bacterial cells were treated with various peptide concentrations and incubated at 37 ± 2°C for 16 to 20 h. The lowest concentration with clear wells was recorded as the MIC for each test molecule. The clear wells were further plated in Mueller-Hinton agar (MHA) plates, followed by incubation overnight at 37 ± 2°C. After plating, the lowest concentration at which no growth was observed was recorded as the MBC. For the serum sensitivity assay, the antimicrobial activity of the peptides was tested in medium containing 50% human serum ([43], [44]).

Escherichia coli = test: microbe, parasite or virus in culture; assay type: cell-based
Protocol: as §3

[3] = test system: NDM-1 Klebsiella pneumoniae; test: microbe, parasite or virus in culture; assay type: cell-based
Protocol: as §3

Salmonella enterica = test: microbe, parasite or virus in culture; assay type: cell-based; conditions: MHB medium
Protocol: as §3

Enterobacter aerogenes = test: microbe, parasite or virus in culture; assay type: cell-based; conditions: MHB medium
Protocol: as §3

MDR A. baumannii 1019 = test: microbe, parasite or virus in culture; assay type: cell-based, Acinetobacter baumannii
Protocol: as §3

MDR A. baumannii 1607 = test: microbe, parasite or virus in culture; assay type: cell-based, Acinetobacter baumannii
Protocol: as §3

MDR A. baumannii 2998 = test: microbe, parasite or virus in culture; assay type: cell-based, Acinetobacter baumannii
Protocol: as §3

MDR A. baumannii 921 = test: microbe, parasite or virus in culture; assay type: cell-based, Acinetobacter baumannii
Protocol: as §3

MDR A. baumannii 2982 = test: microbe, parasite or virus in culture; assay type: cell-based, Acinetobacter baumannii
Protocol: as §3

MDR A. baumannii 2997 = test: microbe, parasite or virus in culture; assay type: cell-based, Acinetobacter baumannii; conditions: for MBC: read-out: MBC; for MIC: read-out: MIC
Protocol: as §3

MDR A. baumannii 2962 = test: microbe, parasite or virus in culture; assay type: cell-based, Acinetobacter baumannii
Protocol: as §3

MDR A. baumannii 1033 = test: microbe, parasite or virus in culture; assay type: cell-based, Acinetobacter baumannii; conditions: for MBC: read-out: MBC; for MIC: read-out: MIC
Protocol: as §3

MDR A. baumannii 3618 = test: microbe, parasite or virus in culture; assay type: cell-based, Acinetobacter baumannii
Protocol: as §3

MDR A. baumannii 2088 = test: microbe, parasite or virus in culture; assay type: cell-based, Acinetobacter baumannii
Protocol: as §3

MDR A. baumannii 1702 = test: microbe, parasite or virus in culture; assay type: cell-based, Acinetobacter baumannii; conditions: for MBC: read-out: MBC; for MIC: read-out: MIC
Protocol: as §3

MDR A. baumannii 14B0091 = test: microbe, parasite or virus in culture; assay type: cell-based, Acinetobacter baumannii
Protocol: as §3

[4] = HS, 50% human serum containing MHB medium
[5] = HS, MH medium containing 50% human serum
[6] = HS, MH medium containing 50% human serum, read-out: MBC

CC[C@H](C)[C@H](NC(=O)[C@H](C)NC(=O)[C@H](CCCCN)NC(=O)CNC(=O)[C@H](C)NC(=O)[C@H](CO)NC(=O)[C@H](Cc1ccccc1)NC(=O)[C@H](CC(C)C)NC(=O)CNC(=O)CNC(=O)[C@@H](NC(=O)[C@@H](NC(=O)[C@H](Cc1cnc[nH]1)NC(=O)[C@H](Cc1cnc[nH]1)NC(=O)[C@@H](NC(=O)[C@@H](N)Cc1ccccc1)[C@@H](C)CC)[C@@H](C)CC)[C@@H](C)CC)C(=O)N[C@@H](Cc1cnc[nH]1)C(=O)N[C@@H](CCCNC(=N)N)C(=O)N[C@@H](CC(C)C)C(=O)N[C@H](C(=O)N[C@@H](CCCNC(=N)N)C(=O)N[C@@H](CCCNC(=N)N)C(=O)N[C@@H](CCCNC(=N)N)C(=O)N[C@@H](CCCNC(=N)N)C(=O)N[C@@H](CCCNC(=N)N)C(=O)O)[C@@H](C)CC [TP4, tilapia piscidin 4] (H-FIHHIIGGLFSAGKAIHRLIRRRRR-OH)
15% hemolysis concn (human red blood cells): <3.13 µM
cell death (human kidney cell (HK-2)): substantial cell death
cell death [1]: substantial cell death
cell death [2]: substantial cell death

CC[C@H](C)[C@H](NC(=O)[C@H](CCCCN)NC(=O)[C@H](CCC(=O)O)NC(=O)[C@H](CCCCN)NC(=O)[C@H](CO)NC(=O)[C@H](CCCCN)NC(=O)[C@H](CCCNC(=N)N)NC(=O)[C@H](Cc1ccccc1)NC(=O)[C@H](Cc1ccccc1)NC(=O)[C@H](CC(=O)O)NC(=O)CNC(=O)[C@H](CC(C)C)NC(=O)[C@@H](N)CC(C)C)C(=O)NCC(=O)N[C@@H](CCCCN)C(=O)N[C@@H](CCC(=O)O)C(=O)N[C@@H](Cc1ccccc1)C(=O)N[C@@H](CCCCN)C(=O)N[C@@H](CCCNC(=N)N)C(=O)N[C@H](C(=O)N[C@H](C(=O)N[C@@H](CCC(N)=O)C(=O)N[C@@H](CCCNC(=N)N)C(=O)N[C@H](C(=O)N[C@@H](CCCCN)C(=O)N[C@@H](CC(=O)O)C(=O)N[C@@H](Cc1ccccc1)C(=O)N[C@@H](CC(C)C)C(=O)N[C@@H](CCCNC(=N)N)C(=O)N[C@@H](CC(N)=O)C(=O)N[C@@H](CC(C)C)C(=O)N[C@H](C(=O)N1CCC[C@H]1C(=O)N[C@@H](CCCNC(=N)N)C(=O)N[C@H](C(=O)N[C@@H](CCC(=O)O)C(=O)N[C@@H](CO)C(=O)O)[C@@H](C)O)C(C)C)[C@@H](C)CC)C(C)C)[C@@H](C)CC [LL-37]
MBC (Pseudomonas aeruginosa; HS, 50% human serum containing MHB medium, read-out: MBC): >25 µM
MIC (Pseudomonas aeruginosa; HS, 50% human serum containing MHB medium, read-out: MIC): >25 µM
MBC (Pseudomonas aeruginosa; MHB medium): 6.25−12.5 μM
MIC (Pseudomonas aeruginosa; MHB medium): 6.25−12.5 μM
MBC (Escherichia coli; [4]): >25 µM
MIC (Escherichia coli; [4]): >25 µM
MBC (Escherichia coli; MHB medium): 6.25 µM (≈ 28.1 µg/mL)
MIC (Escherichia coli; MHB medium): 6.25 µM (≈ 28.1 µg/mL)
MBC [3, 4]: >25 µM
MIC [3, 4]: >25 µM
MBC ([3]; MHB medium): 25 µM (≈ 112 µg/mL)
MIC ([3]; MHB medium): 25 µM (≈ 112 µg/mL)
MBC (Salmonella enterica): >25 µM
MIC (Salmonella enterica): >25 µM
MBC (Enterobacter aerogenes): 6.25 µM (≈ 28.1 µg/mL)
MIC (Enterobacter aerogenes): 6.25 µM (≈ 28.1 µg/mL)
MBC (MDR A. baumannii 1019; [5]): >25 µM
MIC (MDR A. baumannii 1019; [5]): >25 µM
MBC (MDR A. baumannii 1019; MHB medium): 6.25 µM (≈ 28.1 µg/mL)
MIC (MDR A. baumannii 1019; MHB medium): 6.25 µM (≈ 28.1 µg/mL)
MIC (MDR A. baumannii 1607; [5]): >25 µM
MBC (MDR A. baumannii 1607; [6]): >25 µM
MBC (MDR A. baumannii 1607; MHB medium): 3.13 to 6.25 µM
MIC (MDR A. baumannii 1607; MHB medium): 3.13 µM (≈ 14.1 µg/mL)
MIC (MDR A. baumannii 2998; [5]): >25 µM
MBC (MDR A. baumannii 2998; [6]): >25 µM
MBC (MDR A. baumannii 2998; MHB medium): 6.25 to 12.5 µM
MIC (MDR A. baumannii 2998; MHB medium): 6.25 µM (≈ 28.1 µg/mL)
MBC (MDR A. baumannii 921; [5]): >25 µM
MIC (MDR A. baumannii 921; [5]): >25 µM
MBC (MDR A. baumannii 921; MHB medium): 6.25 µM (≈ 28.1 µg/mL)
MIC (MDR A. baumannii 921; MHB medium): 6.25 µM (≈ 28.1 µg/mL)
MBC (MDR A. baumannii 2982; [5]): >25 µM
MIC (MDR A. baumannii 2982; [5]): >25 µM
MBC (MDR A. baumannii 2982; MHB medium): 12.5 µM (≈ 56.2 µg/mL)
MIC (MDR A. baumannii 2982; MHB medium): 6.25 µM (≈ 28.1 µg/mL)
MBC (MDR A. baumannii 2997; [5]): >25 µM
MIC (MDR A. baumannii 2997; [5]): >25 µM
MBC (MDR A. baumannii 2997; MHB medium): 1.56 µM (≈ 7.01 µg/mL)
MIC (MDR A. baumannii 2997; MHB medium): 1.56 µM (≈ 7.01 µg/mL)
MBC (MDR A. baumannii 2962; [5]): >25 µM
MIC (MDR A. baumannii 2962; [5]): >25 µM
MBC (MDR A. baumannii 2962; MHB medium): 6.25 µM (≈ 28.1 µg/mL)
MIC (MDR A. baumannii 2962; MHB medium): 6.25 µM (≈ 28.1 µg/mL)
MBC (MDR A. baumannii 1033; [5]): >25 µM
MIC (MDR A. baumannii 1033; [5]): >25 µM
MBC (MDR A. baumannii 1033; MHB medium): 6.25 µM (≈ 28.1 µg/mL)
MIC (MDR A. baumannii 1033; MHB medium): 6.25 µM (≈ 28.1 µg/mL)
MBC (MDR A. baumannii 3618; [5]): >25 µM
MIC (MDR A. baumannii 3618; [5]): >25 µM
MBC (MDR A. baumannii 3618; MHB medium): 3.13 µM (≈ 14.1 µg/mL)
MIC (MDR A. baumannii 3618; MHB medium): 3.13 µM (≈ 14.1 µg/mL)
MBC (MDR A. baumannii 2088; [6]): >25 µM
MIC (MDR A. baumannii 2088; HS, MH medium containing 50% human serum, read-out: MIC): >25 µM
MBC (MDR A. baumannii 2088; MHB medium): 3.13 to 6.25 µM
MIC (MDR A. baumannii 2088; MHB medium): 3.13 to 6.25 µM
MBC (MDR A. baumannii 1702; [5]): >25 µM
MIC (MDR A. baumannii 1702; [5]): >25 µM
MBC (MDR A. baumannii 1702; MHB medium): 3.13 µM (≈ 14.1 µg/mL)
MIC (MDR A. baumannii 1702; MHB medium): 3.13 µM (≈ 14.1 µg/mL)
MBC (MDR A. baumannii 14B0091; [5]): >25 µM
MIC (MDR A. baumannii 14B0091; [5]): >25 µM
MBC (MDR A. baumannii 14B0091; MHB medium): 3.13 µM (≈ 14.1 µg/mL)
MIC (MDR A. baumannii 14B0091; MHB medium): 3.13 µM (≈ 14.1 µg/mL)

Reference: PMC10101059, “Rational Design of Stapled Antimicrobial Peptides to Enhance Stability and In Vivo Potency against Polymicrobial Sepsis” (Microbiology Spectrum, 2023)
